Consider 4 compounds from US4798833A, “Guanine derivative” (priority 1983, dated 1989).

SMILES strings stand for the structures.

For one series, the system named is HSV-2 (strain 91075). Description: Systemic (i.p.) HSV-2 infection in mice. The format is in vivo. The settings on record: treated animals.
Series [1] is described as follows: Cellular toxicity, reduction in growth of human embryonic cells. The following applies: flow 1000 cells.
Series [2] concerns HSV-1 (strain C42). Description: Plaque reduction assay, inhibition of HSV-1 multiplication in HEL cells. The class given is cell-based, Herpes simplex type 1 virus. The settings on record: Human alphaherpesvirus 1, HEL (human embryonic lung) cells, read-out: HSV-1 in HEL cells ID50. Background: In a plaque reduction assay, fewer plaques than in the control indicate reduced infectivity or spread.

Another series has as its target HSV-1 thymidine kinase (Human herpesvirus 1, UniProt P0DTH5). The experiment in a line: biochemical. The following applies: for Ki: HSV-1 thymidine kinase, read-out: Inhibition constant Ki.
The subject of the next series is HSV-1 (C42). Description: Systemic (i.p.) HSV-1 infection in mice. The format is in vivo. The settings on record: treated animals.
Series [3] has as its system cutaneous herpesvirus infection. Description: Cutaneous herpesvirus infection on guinea pigs, topical treatment. The format is in vivo. How it is done:
Thirty μl of solution or solvent was added topically 3 times per day for 4 days starting 24 h post inoculation.

Series [4] has as its system HSV-1 (strain C42). The experiment in a line: Plaque reduction assay, inhibition of HSV-1 multiplication in Vero cells. The format is cell-based, Herpes simplex type 1 virus. The following applies: read-out: Inhibition (%)/Conc. (μM), HSV-1 in Vero cells; for inhibition at 1 µM: Human alphaherpesvirus 1, 1 μM.
For the next series, the system named is VZV (several strains). The experiment in a line: Inhibition of VZV multiplication in HL cells, late antigens by ELISA. The class given is cell-based, Varicella zoster virus. How it is done:
I. Inhibition of virus multiplication in cell cultures
Virol. 2 357 (1968). The effect on VZV (several strains) multiplication in HL (human lung fibroblast) cells by VSA 671 was determined by measuring the formation of late antigens by the ELISA technique as described by B. Wahren et al., J. Virological Methods 6, 141-149 (1983).

[5] abbreviates: 25 mg/kg i.p. twice daily 5 days, untreated 90, 21 days.
Setting [6] is: 50 mg/kg i.p. twice daily 5 days, untreated 90, 21 days.

HSV-1 thymidine kinase, sequence (P0DTH5 whole entry): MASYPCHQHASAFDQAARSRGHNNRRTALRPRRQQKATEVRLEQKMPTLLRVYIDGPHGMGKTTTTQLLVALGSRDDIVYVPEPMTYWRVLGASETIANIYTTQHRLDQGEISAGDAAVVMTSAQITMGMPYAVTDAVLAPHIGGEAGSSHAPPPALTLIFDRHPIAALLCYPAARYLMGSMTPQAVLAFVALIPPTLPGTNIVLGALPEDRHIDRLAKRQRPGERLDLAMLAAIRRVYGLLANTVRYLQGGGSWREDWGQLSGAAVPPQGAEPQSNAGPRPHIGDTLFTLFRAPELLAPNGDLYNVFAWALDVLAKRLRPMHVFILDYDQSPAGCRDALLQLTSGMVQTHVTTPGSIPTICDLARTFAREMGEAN

On to `Nc1nc2c(ncn2CCC(CO)CO)c(=O)[nH]1` [VIS 873, 9-[4-hydroxy-3-(hydroxymethyl)butyl]guanine], for which the “Cumulative mortality (%) (treated/untreated)” value with HSV-2 (strain 91075) (5 mg/kg i.p. twice daily 5 days, untreated 90, 21 days) worked out at 70%; in the series on HSV-2 (strain 91075) (10 mg/kg i.p. twice daily 5 days, untreated 90, 21 days) it was 20%; with HSV-2 (strain 91075) (setting [5]) it was 0%; with HSV-2 (strain 91075) (50 mg/kg i.p. twice daily 5 days, untreated 100, 21 days) it was 10%; in the series with HSV-1 (C42) (5 mg/kg i.p. twice daily 5 days, untreated 80, 21 days) it was 30%; with HSV-1 (C42) (10 mg/kg i.p. twice daily 5 days, untreated 80, 21 days), 0%. The compound also had an inhibition at 48 h, 200 µM in series [1] of 7%. For the same compound, the IC50 with HSV-1 (strain C42) [2] stood at 400 nM. For the same compound, on HSV-1 thymidine kinase, the inhibitory constant (Ki) (in general, the dissociation constant of the complex between target and ligand, obtained from inhibition or displacement) was 1500 nM. For the same compound, the “Percent reduction in cumulative score as compared to placebo treatment” value in series [3] (2.5% in dimethylsulfoxide, 30 μl topically 3 times per day for 4 days starting 24 h post inoculation) was determined as 36%. For the same compound, the “Therapeutic effect on cutaneous herpesvirus infections (in words)” value in series [3] (topical) is reported as “had a therapeutic effect on cutaneous herpesvirus infections when applied topically”. Besides, the inhibition at 1 µM in the series on HSV-1 (strain C42) [4] is over 90%.
With `Nc1nc2c(ncn2C/C=C\CO)c(=O)[nH]1` [VSA 151, cis-9-(4-hydroxy-2-butenyl)guanine], in series [1], the inhibition at 48 h, 200 µM was found to be 0%. Also, the IC50 in the series on HSV-1 (strain C42) [2] came to 600 nM. Besides, at HSV-1 thymidine kinase, the Ki was found to be 7000 nM. Besides, in the series on HSV-1 (strain C42) [4] (Human alphaherpesvirus 1, 10 μM), the inhibition at 10 µM was over 90%.
On to `Nc1nc2c(ncn2CC=C(CO)CO)c(=O)[nH]1` [VSA 668, 9-[4-hydroxy-3-(hydroxymethyl)-2-butenyl]guanine], for which the inhibition at 48 h, 200 µM in series [1] stood at 0%. Also, the Ki at HSV-1 thymidine kinase was determined as 25000 nM. In the series with HSV-1 (strain C42) [4] (Human alphaherpesvirus 1, 25 μM), the inhibition at 25 µM is over 90%.
As for `Nc1nc2c(ncn2CC(CO)CCO)c(=O)[nH]1` (stereo not drawn) [VSA 671, 9-[4-hydroxy-2-(hydroxymethyl)butyl]guanine], the “Cumulative mortality (%) (treated/untreated)” value in the series with HSV-2 (strain 91075) (setting [5]) was found to be 40%; in the series on HSV-2 (strain 91075) (setting [6]), 30%; in the series on HSV-1 (C42) (setting [5]) it was 30%; in the series on HSV-1 (C42) (setting [6]), 30%. The inhibition at 48 h, 200 µM in series [1] stood at 18%. For the same compound, the IC50 with HSV-1 (strain C42) [2] is 200 nM; with VZV (several strains) (Human alphaherpesvirus 3, HL (human lung fibroblast) cells, several strains, late antigens by ELISA, read-out: VZV in HL cells ID50) it was 1300 to 2500 nM. Further, the “Affinity for viral thymidine kinase (in words)” value on HSV-1 thymidine kinase was “affinity close to that of the natural substrate, thymidine”. Moreover, the Ki at HSV-1 thymidine kinase was 600 nM. Moreover, the inhibition at 1 µM in the series with HSV-1 (strain C42) [4] was over 90%. For the same compound, the “Effect against varicella zoster virus multiplication” value in the series on VZV (several strains) (in words) is recorded as “very good effect against varicella zoster virus multiplication”.
